Data reported in ChEMBL document CHEMBL1201862, “PubChem BioAssay data set” (2004).
The source made the active and inactive calls.

Assays:
[1] = molecular target: T1, Tyrosine-protein phosphatase non-receptor type 22 (Homo sapiens, UniProt Q9Y2R2); assay: LYP (PTPN22) phosphatase inhibitor potency, SAR follow-up, biochemical, pCAP fluorogenic substrate, fluorescence, set 3 (AID 449727); assay type: functional
T1 sequence (Q9Y2R2 whole entry): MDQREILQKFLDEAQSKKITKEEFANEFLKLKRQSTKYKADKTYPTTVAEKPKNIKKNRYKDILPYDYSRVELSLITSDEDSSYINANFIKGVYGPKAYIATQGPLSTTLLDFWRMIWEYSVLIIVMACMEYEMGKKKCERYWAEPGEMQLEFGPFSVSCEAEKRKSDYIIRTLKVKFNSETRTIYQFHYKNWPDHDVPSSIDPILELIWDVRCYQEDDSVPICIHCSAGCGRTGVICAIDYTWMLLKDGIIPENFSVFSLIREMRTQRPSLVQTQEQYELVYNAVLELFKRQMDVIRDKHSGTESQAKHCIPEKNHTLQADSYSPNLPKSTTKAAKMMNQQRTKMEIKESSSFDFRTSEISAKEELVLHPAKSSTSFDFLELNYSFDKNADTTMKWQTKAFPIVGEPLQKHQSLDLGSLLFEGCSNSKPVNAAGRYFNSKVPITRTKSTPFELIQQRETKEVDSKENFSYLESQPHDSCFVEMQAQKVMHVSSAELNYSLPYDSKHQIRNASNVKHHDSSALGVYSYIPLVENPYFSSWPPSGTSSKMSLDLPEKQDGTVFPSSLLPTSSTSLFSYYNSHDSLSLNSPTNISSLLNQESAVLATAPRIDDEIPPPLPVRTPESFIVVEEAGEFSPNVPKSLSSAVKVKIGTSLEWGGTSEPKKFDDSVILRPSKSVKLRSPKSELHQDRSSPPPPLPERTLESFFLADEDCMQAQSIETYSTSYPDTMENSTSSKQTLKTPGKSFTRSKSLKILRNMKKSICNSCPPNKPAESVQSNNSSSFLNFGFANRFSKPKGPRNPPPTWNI

[2] = molecular target: T2, Tyrosine-protein phosphatase non-receptor type 7 (Homo sapiens, UniProt P35236); assay: HePTP (PTPN7) phosphatase inhibitor potency, SAR follow-up, biochemical, set 2 (AID 449736); assay type: functional
T2 sequence (P35236 whole entry): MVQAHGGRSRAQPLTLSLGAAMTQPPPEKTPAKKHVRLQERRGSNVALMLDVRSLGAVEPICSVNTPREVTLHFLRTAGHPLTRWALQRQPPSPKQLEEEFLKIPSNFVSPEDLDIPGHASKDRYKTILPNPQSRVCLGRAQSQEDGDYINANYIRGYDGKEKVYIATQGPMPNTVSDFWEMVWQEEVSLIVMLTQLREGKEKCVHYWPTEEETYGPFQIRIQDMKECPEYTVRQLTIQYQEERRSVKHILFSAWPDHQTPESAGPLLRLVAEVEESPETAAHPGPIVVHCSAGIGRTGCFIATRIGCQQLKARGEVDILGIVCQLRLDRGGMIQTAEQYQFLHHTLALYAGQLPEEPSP

[3] = molecular target: T1, Tyrosine-protein phosphatase non-receptor type 22; assay: SAR LYP1 Fluorescent Assay using OMFP substrate for In Vitro dose response studies - Set 3. [Related pubchem assays (depositor defined):AID1779, AID1784, AID2140, AID2686]; assay type: functional
[4] = molecular target: T1, Tyrosine-protein phosphatase non-receptor type 22; assay: SAR LYP1 Fluorescent Assay using OMFP substrate for In Vitro dose response studies - Set 2. [Related pubchem assays (depositor defined):AID1779, AID1784, AID2140, AID449726, AID488869]; assay type: functional
[5] = molecular target: Tyrosine-protein phosphatase non-receptor type 12 (Homo sapiens, UniProt Q05209); assay: SAR Selectivity Analysis of small molecule inhibitors of PEST using pCAP in a fluorescence assay. [Related pubchem assays (depositor defined):AID1779, AID1784, AID2135]; assay type: functional
[6] = molecular target: T1, Tyrosine-protein phosphatase non-receptor type 22; assay: SAR LYP1 Fluorescent Assay using pCAP substrate for In Vitro dose response studies - Set 2. [Related pubchem assays (depositor defined):AID1779, AID1784, AID2135, AID449727]; assay type: functional
[7] = molecular target: T3, Kappa-type opioid receptor (Homo sapiens, UniProt P41145); assay type: functional
Mu-type opioid receptor [8] = molecular target: T4, Mu-type opioid receptor (Homo sapiens, UniProt P35372); assay: MOR antagonists, SAR follow-up, image-based (AID 2420); assay type: functional;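 also: compounds added before stimulation of receptor with agonist DAMGO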
[9] = molecular target: T5, Delta-type opioid receptor (Homo sapiens, UniProt P41143); assay: HTS Image-Based Screen for Agonists of the DOR Receptor. [Related pubchem assays (depositor defined):AID1777, AID1786, AID2133]; assay type: functional
[10] = molecular target: T3, Kappa-type opioid receptor; assay: KOR antagonists by imaging, SAR follow-up, image-based (AID 2348); assay type: functional
[11] = molecular target: T5, Delta-type opioid receptor; assay: HTS Image-Based Screen for Antagonists of the DOR Receptor. [Related pubchem assays (depositor defined):AID1777, AID1785, AID1786, AID2133]; assay type: functional
[12] = molecular target: T3, Kappa-type opioid receptor; assay: KOR agonist analogs, imaging readout, SAR follow-up, image-based (AID 2359); assay type: functional
[13] = molecular target: T5, Delta-type opioid receptor; assay: DOR agonists, SAR follow-up, image-based (AID 2370); assay type: functional
[14] = molecular target: T3, Kappa-type opioid receptor; assay: SAR analysis of small molecule agonists of the kappa opioid receptor via a luminescent beta-arrestin assay. [Related pubchem assays (depositor defined):AID1777, AID1786, AID1966, AID2133, AID2136, AID2348, AID2352, AID2357, AID2359, AID2370, AID2420, AID2478, AID2491, AID2492, AID2493, AID2497, AID2498, AID2500, AID449737, AID488822, AID488842]; assay type: functional
Mu-type opioid receptor [15] = molecular target: T4, Mu-type opioid receptor; assay: HTS Image-Based Screen for Agonists of the MOR Receptor. [Related pubchem assays (depositor defined):AID1777, AID1785, AID1786, AID2133]; assay type: functional
Mu-type opioid receptor [16] = molecular target: T4, Mu-type opioid receptor; assay: MOR agonists by imaging, SAR follow-up, image-based (AID 2352); assay type: functional
[17] = molecular target: T3, Kappa-type opioid receptor; assay type: functional; remark: listed apart in the source
[18] = molecular target: T5, Delta-type opioid receptor; assay: DOR antagonists, SAR follow-up, image-based (AID 2357); assay type: functional
[19] = molecular target: Peroxisome proliferator-activated receptor gamma/Nuclear receptor coactivator 2 (Homo sapiens, UniProt P37231); assay: (§1) TR-FRET dose response biochemical High Throughput Screening assay for agonists of the steroid receptor coactivator 2 (SRC-2) recruitment by the peroxisome proliferator-activated receptor gamma (PPAR gamma): non-selective agonists. [Related pubchem assays: 1297, 1032 ]; assay type: functional
[20] = molecular target: Peroxisome proliferator-activated receptor gamma/Nuclear receptor coactivator 1 (Homo sapiens, UniProt P37231); assay: as §1, with “1 (SRC-1)” for “2 (SRC-2)”, “assays (depositor defined):AID1300, AID1808, AID504735, AID631]” for “assays: 1297, 1032 ]”; assay type: protein assay
[21] = molecular target: Peroxisome proliferator-activated receptor gamma/Nuclear receptor coactivator 3 (Homo sapiens, UniProt P37231); assay: as §1, with “3 (SRC-3)” for “2 (SRC-2)”, “1301 (Confirmation screen.), 1048 (Primary screen.)]” for “1297, 1032 ]”; assay type: functional

T4 sequence (P35372 whole entry): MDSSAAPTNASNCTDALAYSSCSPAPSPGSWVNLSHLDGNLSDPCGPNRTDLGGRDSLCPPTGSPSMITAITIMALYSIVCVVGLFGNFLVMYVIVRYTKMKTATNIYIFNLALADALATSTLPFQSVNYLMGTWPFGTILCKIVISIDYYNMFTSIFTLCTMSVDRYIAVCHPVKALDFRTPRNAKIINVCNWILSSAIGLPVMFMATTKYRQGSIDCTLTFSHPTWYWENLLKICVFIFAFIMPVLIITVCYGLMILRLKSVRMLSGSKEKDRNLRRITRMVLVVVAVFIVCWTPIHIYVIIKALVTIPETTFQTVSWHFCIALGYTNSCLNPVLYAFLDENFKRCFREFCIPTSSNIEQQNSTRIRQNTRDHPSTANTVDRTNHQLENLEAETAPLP
T5 sequence (P41143 whole entry): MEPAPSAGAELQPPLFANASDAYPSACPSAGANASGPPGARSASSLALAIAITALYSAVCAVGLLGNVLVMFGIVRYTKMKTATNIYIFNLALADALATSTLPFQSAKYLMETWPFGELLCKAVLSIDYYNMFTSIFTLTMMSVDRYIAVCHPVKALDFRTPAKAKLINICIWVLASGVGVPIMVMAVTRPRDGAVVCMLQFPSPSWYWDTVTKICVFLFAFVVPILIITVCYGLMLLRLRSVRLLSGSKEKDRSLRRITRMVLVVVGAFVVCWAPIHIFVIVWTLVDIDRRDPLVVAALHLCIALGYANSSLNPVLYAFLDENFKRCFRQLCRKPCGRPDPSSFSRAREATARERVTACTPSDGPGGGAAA
T3 sequence (P41145 whole entry): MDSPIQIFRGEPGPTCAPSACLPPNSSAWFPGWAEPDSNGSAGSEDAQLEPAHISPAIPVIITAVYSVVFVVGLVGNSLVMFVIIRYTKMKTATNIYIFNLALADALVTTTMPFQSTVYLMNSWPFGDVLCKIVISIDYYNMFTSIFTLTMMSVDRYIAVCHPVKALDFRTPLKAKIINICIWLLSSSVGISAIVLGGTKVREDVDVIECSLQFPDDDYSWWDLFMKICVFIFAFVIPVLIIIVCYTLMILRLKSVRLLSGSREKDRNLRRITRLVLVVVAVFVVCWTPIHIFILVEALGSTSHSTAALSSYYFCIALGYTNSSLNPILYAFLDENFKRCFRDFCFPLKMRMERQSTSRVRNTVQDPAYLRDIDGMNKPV
Tyrosine-protein phosphatase non-receptor type 12, sequence (Q05209 whole entry): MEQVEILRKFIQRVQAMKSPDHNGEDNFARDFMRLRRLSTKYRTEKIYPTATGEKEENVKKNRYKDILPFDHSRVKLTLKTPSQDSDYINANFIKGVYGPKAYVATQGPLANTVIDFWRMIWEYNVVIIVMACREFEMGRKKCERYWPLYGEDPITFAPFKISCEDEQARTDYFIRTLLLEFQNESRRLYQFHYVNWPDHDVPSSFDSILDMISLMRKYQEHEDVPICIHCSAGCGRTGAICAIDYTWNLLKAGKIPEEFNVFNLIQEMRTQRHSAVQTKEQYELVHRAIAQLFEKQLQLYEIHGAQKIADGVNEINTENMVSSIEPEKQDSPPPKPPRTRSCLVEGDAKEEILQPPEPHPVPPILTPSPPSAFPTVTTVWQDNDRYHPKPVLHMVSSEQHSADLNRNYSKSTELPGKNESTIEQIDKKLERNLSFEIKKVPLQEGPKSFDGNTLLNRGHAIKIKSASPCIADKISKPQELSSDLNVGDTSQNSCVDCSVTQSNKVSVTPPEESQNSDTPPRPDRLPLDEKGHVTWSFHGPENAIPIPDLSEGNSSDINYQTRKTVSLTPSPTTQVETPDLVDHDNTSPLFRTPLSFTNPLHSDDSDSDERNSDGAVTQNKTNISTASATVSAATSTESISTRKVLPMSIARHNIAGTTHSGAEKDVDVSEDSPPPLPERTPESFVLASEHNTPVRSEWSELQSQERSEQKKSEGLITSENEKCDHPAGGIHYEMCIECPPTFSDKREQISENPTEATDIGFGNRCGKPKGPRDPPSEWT
Peroxisome proliferator-activated receptor gamma/Nuclear receptor coactivator 2, sequence (P37231 whole entry): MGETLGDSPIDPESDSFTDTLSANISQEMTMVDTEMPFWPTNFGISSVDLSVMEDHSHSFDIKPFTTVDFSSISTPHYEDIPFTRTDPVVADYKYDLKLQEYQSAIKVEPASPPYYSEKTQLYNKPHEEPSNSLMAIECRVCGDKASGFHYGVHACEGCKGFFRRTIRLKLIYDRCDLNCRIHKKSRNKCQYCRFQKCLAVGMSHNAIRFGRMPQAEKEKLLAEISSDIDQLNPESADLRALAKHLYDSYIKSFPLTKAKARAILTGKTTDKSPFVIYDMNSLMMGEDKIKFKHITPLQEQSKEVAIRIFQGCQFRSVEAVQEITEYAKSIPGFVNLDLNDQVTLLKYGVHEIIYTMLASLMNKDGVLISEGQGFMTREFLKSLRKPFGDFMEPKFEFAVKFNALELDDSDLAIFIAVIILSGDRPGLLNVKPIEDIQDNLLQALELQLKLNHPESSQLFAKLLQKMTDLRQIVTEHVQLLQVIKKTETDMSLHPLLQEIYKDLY
Peroxisome proliferator-activated receptor gamma/Nuclear receptor coactivator 2, sequence (Q15596 whole entry, further chain): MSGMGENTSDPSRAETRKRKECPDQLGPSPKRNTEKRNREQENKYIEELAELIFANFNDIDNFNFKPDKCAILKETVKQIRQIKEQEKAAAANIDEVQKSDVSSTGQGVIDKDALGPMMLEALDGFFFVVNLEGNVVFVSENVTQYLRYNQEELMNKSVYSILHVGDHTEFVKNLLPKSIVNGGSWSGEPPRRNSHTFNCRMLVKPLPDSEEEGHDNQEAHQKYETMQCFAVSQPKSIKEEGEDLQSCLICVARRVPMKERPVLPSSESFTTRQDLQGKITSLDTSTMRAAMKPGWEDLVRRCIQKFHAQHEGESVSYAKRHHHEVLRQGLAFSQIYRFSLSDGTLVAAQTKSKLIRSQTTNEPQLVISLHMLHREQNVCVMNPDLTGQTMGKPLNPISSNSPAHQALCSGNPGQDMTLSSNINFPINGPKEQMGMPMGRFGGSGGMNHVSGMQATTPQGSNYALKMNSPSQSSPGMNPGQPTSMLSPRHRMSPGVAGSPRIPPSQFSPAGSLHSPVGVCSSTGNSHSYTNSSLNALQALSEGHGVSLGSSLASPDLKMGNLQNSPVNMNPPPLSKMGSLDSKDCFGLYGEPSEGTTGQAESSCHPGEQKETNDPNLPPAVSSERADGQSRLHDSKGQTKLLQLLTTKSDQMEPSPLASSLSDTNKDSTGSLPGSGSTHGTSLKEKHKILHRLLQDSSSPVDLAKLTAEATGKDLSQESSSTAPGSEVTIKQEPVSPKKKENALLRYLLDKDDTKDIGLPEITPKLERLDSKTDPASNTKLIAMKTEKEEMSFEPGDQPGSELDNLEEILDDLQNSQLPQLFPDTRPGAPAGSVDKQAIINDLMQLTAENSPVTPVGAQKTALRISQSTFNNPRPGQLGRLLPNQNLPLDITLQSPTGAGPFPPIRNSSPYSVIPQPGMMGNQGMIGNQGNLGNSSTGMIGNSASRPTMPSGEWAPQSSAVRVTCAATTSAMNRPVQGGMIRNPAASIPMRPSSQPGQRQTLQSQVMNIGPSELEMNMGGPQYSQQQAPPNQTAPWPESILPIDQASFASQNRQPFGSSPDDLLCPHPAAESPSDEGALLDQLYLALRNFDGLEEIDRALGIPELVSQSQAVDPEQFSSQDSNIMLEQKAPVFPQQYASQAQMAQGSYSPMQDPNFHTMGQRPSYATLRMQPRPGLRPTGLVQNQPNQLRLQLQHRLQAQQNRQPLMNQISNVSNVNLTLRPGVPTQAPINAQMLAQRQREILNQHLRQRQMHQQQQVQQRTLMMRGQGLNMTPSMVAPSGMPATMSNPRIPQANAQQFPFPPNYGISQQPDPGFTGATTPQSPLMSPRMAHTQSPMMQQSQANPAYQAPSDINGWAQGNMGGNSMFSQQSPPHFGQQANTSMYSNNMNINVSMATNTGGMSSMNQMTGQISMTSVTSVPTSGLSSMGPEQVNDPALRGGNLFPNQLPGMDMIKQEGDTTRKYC

Compound: O=C(O)COc1ccc(NC(=O)c2ccco2)cc1
- IC50 [1]: > 100 µM (inactive)
- IC50 [2]: > 100 µM (inactive)
- IC50 [3]: > 100 µM (inactive)
- IC50 [4]: > 100 µM (inactive)
- IC50 [5]: > 100 µM (inactive)
- IC50 [6]: > 100 µM (inactive)

Compound: Cc1cccc(C)c1NC(=O)C1(N(Cc2ccco2)C(=O)c2ccccn2)CCCC1
- EC50 [7]: 4.19 µM
- IC50 (Mu-type opioid receptor [8]): > 32 µM (inactive)
- EC50 [9]: > 32 µM (inactive)
- IC50 [10]: > 32 µM (inactive)
- IC50 [11]: > 32 µM (inactive)
- EC50 [12]: 1.11 µM (active)
- EC50 [13]: > 32 µM (inactive)
- EC50 [14]: 4.05 µM (active)
- EC50 (Mu-type opioid receptor [15]): > 32 µM (inactive)
- EC50 (Mu-type opioid receptor [16]): > 32 µM (inactive)
- EC50 [17]: 1.94 µM
- IC50 [18]: > 32 µM (inactive)

Compound: C#CCn1/c(=N/C(=O)c2sc3ccccc3c2Cl)sc2cc(S(N)(=O)=O)ccc21
- EC50 [19]: 18.7 µM (not active)
- EC50 [20]: 16.2 µM (inactive)
- EC50 [21]: > 79.4 µM (not active)
